Measured values as given in paper PMC9892044, “Synthesis of new diphenyl urea-clubbed imine analogs and its Implications in diabetic management through in vitro and in silico approaches” (Scientific Reports, 2023).

Row | Compound | melting point
1 | COc1cccc(/C=N/c2ccccc2NC(=O)Nc2cccc(F)c2)c1O [Compound 3n, (E)-1-(3-fluorophenyl)-3-(2-((2-hydroxy-3-methoxybenzylidene)amino)phenyl) urea] | 200 to 201 °C
2 | COc1cccc(/C=N/c2ccccc2NC(=O)Nc2cccc(C)c2)c1O [Compound 3s, (E)-1-(2-((2-hydroxy-3-methoxybenzylidene)amino)phenyl)-3-(m-tolyl) urea] | 201 to 203 °C
3 | COc1cccc(/C=N/c2ccccc2NC(=O)Nc2ccc(C(C)=O)cc2)c1O [Compound 3v, (E)-1-(4-acetylphenyl)-3-(2-((2-hydroxy-3-methoxybenzylidene)amino)phenyl) urea] | 200 to 212 °C
4 | COc1cccc(/C=N/c2ccccc2NC(=O)Nc2ccc3ccccc3c2)c1O [Compound 3o, (E)-1-(2-((2-hydroxy-3-methoxybenzylidene)amino)phenyl)-3-(naphthalen-2-yl) urea] | 214 to 216 °C
5 | COc1cccc(/C=N/c2ccccc2NC(=O)Nc2ccccc2)c1O [Compound 3u, (E)-1-(2-((2-hydroxy-3-methoxybenzylidene)amino)phenyl)-3-phenylurea] | 188 to 190 °C
6 | CCOc1cccc(/C=N/c2ccccc2NC(=O)Nc2ccc(Cl)cc2)c1O [Compound 3f, (E)-1-(4-chlorophenyl)-3-(2-((3-ethoxy-2-hydroxybenzylidene)amino)phenyl) urea] | 218 to 220 °C
7 | CCOc1cccc(/C=N/c2ccccc2NC(=O)Nc2cccc(C)c2)c1O [Compound 3h, (E)-1-(2-((3-ethoxy-2-hydroxybenzylidene)amino)phenyl)-3-(m-tolyl) urea] | 203 to 205 °C
8 | CCOc1cccc(/C=N/c2ccccc2NC(=O)Nc2cccc(Cl)c2)c1O [Compound 3a, (E)-1-(3-chlorophenyl)-3-(2-((3-ethoxy-2-hydroxybenzylidene)amino)phenyl) urea] | 218 to 220 °C
9 | COc1cc(/C=N/c2ccccc2NC(=O)Nc2ccccc2C)ccc1O [Compound 3x, (E)-1-(2-((4-hydroxy-3-methoxybenzylidene)amino)phenyl)-3-(o-tolyl) urea] | 200 to 202 °C
10 | CCOc1cccc(/C=N/c2ccccc2NC(=O)Nc2ccc3ccccc3c2)c1O [Compound 3d, (E)-1-(2-((3-ethoxy-2-hydroxybenzylidene)amino)phenyl)-3-(naphthalen-2-yl) urea] | 228 to 230 °C
11 | CCOc1cccc(/C=N/c2ccccc2NC(=O)Nc2ccc(C)cc2)c1O [Compound 3i, (E)-1-(2-((3-ethoxy-2-hydroxybenzylidene)amino)phenyl)-3-(p-tolyl)urea] | 210 to 212 °C
12 | CCOc1cccc(/C=N/c2ccccc2NC(=O)Nc2ccc(F)cc2)c1O [Compound 3b, (E)-1-(2-((3-ethoxy-2-hydroxybenzylidene)amino)phenyl)-3-(4-fluorophenyl) urea] | 217 to 219 °C
13 | COc1cc(/C=N/c2ccccc2NC(=O)Nc2ccc(Cl)cc2)ccc1O [Compound 3w, (E)-1-(4-chlorophenyl)-3-(2-((4-hydroxy-3-methoxybenzylidene)amino)phenyl) urea] | 219 to 221 °C
14 | CCOc1cccc(/C=N/c2ccccc2NC(=O)Nc2ccc(OC)cc2)c1O [Compound 3e, (E)-1-(2-((3-ethoxy-2-hydroxybenzylidene)amino)phenyl)-3-(4-methoxyphenyl) urea] | 204 to 206 °C
15 | CCOc1cccc(/C=N/c2ccccc2NC(=O)Nc2ccccc2C)c1O [Compound 3g, (E)-1-(2-((3-ethoxy-2-hydroxybenzylidene)amino)phenyl)-3-(o-tolyl) urea] | 216 to 218 °C
16 | COc1cccc(/C=N/c2ccccc2NC(=O)Nc2cccc(Cl)c2)c1O [Compound 3l, (E)-1-(3-chlorophenyl)-3-(2-((2-hydroxy-3-methoxybenzylidene)amino)phenyl) urea] | 208 to 210 °C
17 | COc1cccc(/C=N/c2ccccc2NC(=O)Nc2ccc(Cl)cc2)c1O [Compound 3q, (E)-1-(4-chlorophenyl)-3-(2-((2-hydroxy-3-methoxybenzylidene)amino)phenyl) urea] | 218 to 220 °C
